pEC50: −log10 of the molar value.
Each compound was assayed against DYRK1A (Homo sapiens (Human), UniProt Q13627) (assay: DYRK1A activity Tau assay: pSer396 Tau in SH-SY5Y cells by ELISA / western blot). Settings: overnight (16-18 h) exposure.
Format: cell-based
`O=C(NC1CCCC1)c1n[nH]c2ccc(-c3cncc(Cl)c3)cc12` [Compound 1279, 5-(5-Chloropyridin-3-yl)-N-cyclopentyl-1H-indazole-3-carboxamide] showed a pEC50 of 7.01.
For `O=C(NC1CCCC1)c1n[nH]c2ccc(-c3cncc(F)c3)cc12` [Compound 1280, N-Cyclopentyl-5-(5-fluoropyridin-3-yl)-1H-indazole-3-carboxamide], the pEC50 was 7.49.
Work on `O=C(NC1CCCCC1)c1n[nH]c2ccc(-c3cncnc3)cc12` [Compound 1281, N-Cyclohexyl-5-(pyrimidin-5-yl)-1H-indazole-3-carboxamide] yielded a pEC50 of 7.19.
`O=C(NC1CCCCC1)c1n[nH]c2ccc(-c3cncc(F)c3)cc12` [Compound 1282, N-Cyclohexyl-5-(5-fluoropyridin-3-yl)-1H-indazole-3-carboxamide] showed a pEC50 of 7.66.
With `O=C(NC1CCC(F)(F)CC1)c1n[nH]c2ccc(-c3cncc(F)c3)cc12` [Compound 1284, N-(4,4-Difluorocyclohexyl)-5-(5-fluoropyridin-3-yl)-1H-indazole-3-carboxamide] the pEC50 was 7.77.
Work on `CN1CC2(CCC(NC(=O)c3n[nH]c4ccc(-c5cncc(F)c5)cc34)CC2)C1` [Compound 1289, 5-(5-Fluoropyridin-3-yl)-N-(2-methyl-2-azaspiro[3.5]nonan-7-yl)-1H-indazole-3-carboxamide] yielded a pEC50 of 7.54.
With `CN1CCC(NC(=O)c2n[nH]c3cc(F)c(-c4cccnc4)cc23)CC1` [Compound 1290, 6-Fluoro-N-(1-methylpiperidin-4-yl)-5-(pyridin-3-yl)-1H-indazole-3-carboxamide] the pEC50 was 7.68.
Work on `CCN1CCC(NC(=O)c2n[nH]c3ccc(-c4cncc(Cl)c4)cc23)CC1` [Compound 1291, 5-(5-Chloropyridin-3-yl)-N-(1-ethylpiperidin-4-yl)-1H-indazole-3-carboxamide] yielded a pEC50 of 7.41.
`CCN1CCC(NC(=O)c2n[nH]c3ccc(-c4cncc5ccccc45)cc23)CC1` [Compound 1292, N-(1-Ethylpiperidin-4-yl)-5-(isoquinolin-4-yl)-1H-indazole-3-carboxamide] showed a pEC50 of 7.13.
`CCN1CCC(NC(=O)c2n[nH]c3ccc(-c4cnc5ccccc5c4)cc23)CC1` [Compound 1294, N-(1-Ethylpiperidin-4-yl)-5-(quinolin-3-yl)-1H-indazole-3-carboxamide] was tested, and the pEC50 was 6.62.
`CCN1CCC(NC(=O)c2n[nH]c3ccc(-c4cnc5ccc(F)cc5c4)cc23)CC1` [Compound 1295, N-(1-Ethylpiperidin-4-yl)-5-(6-fluoroquinolin-3-yl)-1H-indazole-3-carboxamide] was tested, and the pEC50 was 6.47.
For `O=C(NC1CCN(CCF)CC1)c1n[nH]c2ccc(-c3cncc(Cl)c3)cc12` [Compound 1296, 5-(5-Chloropyridin-3-yl)-N-(1-(2-fluoroethyl)piperidin-4-yl)-1H-indazole-3-carboxamide], the pEC50 was 7.57.
`O=C(NC1CCN(CC(F)F)CC1)c1n[nH]c2ccc(-c3cncc(Cl)c3)cc12` [Compound 1299, 5-(5-Chloropyridin-3-yl)-N-(1-(2,2-difluoroethyl)piperidin-4-yl)-1H-indazole-3-carboxamide] gave a pEC50 of 7.70.
Work on `CC(F)(F)CN1CCC(NC(=O)c2n[nH]c3ccc(-c4cccnc4)cc23)CC1` [Compound 1300, N-(1-(2,2-Difluoropropyl)piperidin-4-yl)-5-(pyridin-3-yl)-1H-indazole-3-carboxamide] yielded a pEC50 of 8.22.
For `CC(F)(F)CN1CCC(NC(=O)c2n[nH]c3ccc(-c4cncc(F)c4)cc23)CC1` [Compound 1301, N-(1-(2,2-Difluoropropyl)piperidin-4-yl)-5-(5-fluoropyridin-3-yl)-1H-indazole-3-carboxamide], the pEC50 was 7.64.
Work on `CC(F)(F)CN1CCC(NC(=O)c2n[nH]c3ccc(-c4cncc(Cl)c4)cc23)CC1` [Compound 1302, 5-(5-Chloropyridin-3-yl)-N-(1-(2,2-difluoropropyl)piperidin-4-yl)-1H-indazole-3-carboxamide] yielded a pEC50 of 7.51.
In the case of `CC(C)N1CCC(NC(=O)c2n[nH]c3ccc(-c4cncc(C(F)F)c4)cc23)CC1` [Compound 1303, 5-(5-(Difluoromethyl)pyridin-3-yl)-N-(1-isopropylpiperidin-4-yl)-1H-indazole-3-carboxamide], the pEC50 was 6.93.
`CC(C)N1CCC(NC(=O)c2n[nH]c3cc(Cl)c(-c4cccnc4)cc23)CC1` [Compound 1304, 6-Chloro-N-(1-isopropylpiperidin-4-yl)-5-(pyridin-3-yl)-1H-indazole-3-carboxamide] showed a pEC50 of 7.02.
`CC(C)CN1CCC(NC(=O)c2n[nH]c3ccc(-c4cncc(F)c4)cc23)CC1` [Compound 1306, 5-(5-Fluoropyridin-3-yl)-N-(1-isobutylpiperidin-4-yl)-1H-indazole-3-carboxamide] was tested, and the pEC50 was 7.36.
For `CC(C)CN1CCC(NC(=O)c2n[nH]c3ccc(-c4cncc(Cl)c4)cc23)CC1` [Compound 1307, 5-(5-Chloropyridin-3-yl)-N-(1-isobutylpiperidin-4-yl)-1H-indazole-3-carboxamide], the pEC50 was 7.33.
Compound `CC(C)CN1CCC(NC(=O)c2n[nH]c3cc(F)c(-c4cccnc4)cc23)CC1` [Compound 1308, 6-Fluoro-N-(1-isobutylpiperidin-4-yl)-5-(pyridin-3-yl)-1H-indazole-3-carboxamide] has a pEC50 of 7.77.
Work on `CC(C)(F)CN1CCC(NC(=O)c2n[nH]c3ccc(-c4cncc(F)c4)cc23)CC1` [Compound 1310, N-(1-(2-Fluoro-2-methylpropyl)piperidin-4-yl)-5-(5-fluoropyridin-3-yl)-1H-indazole-3-carboxamide] yielded a pEC50 of 7.72.
In the case of `CC(C)(F)CN1CCC(NC(=O)c2n[nH]c3ccc(-c4cncc(Cl)c4)cc23)CC1` [Compound 1311, 5-(5-Chloropyridin-3-yl)-N-(1-(2-fluoro-2-methylpropyl)piperidin-4-yl)-1H-indazole-3-carboxamide], the pEC50 was 7.52.
`O=C(NC1CCN(CC2CC2)CC1)c1n[nH]c2ccc(-c3cncc(F)c3)cc12` [Compound 1312, N-(1-(Cyclopropylmethyl)piperidin-4-yl)-5-(5-fluoropyridin-3-yl)-1H-indazole-3-carboxamide] gave a pEC50 of 7.48.
`O=C(NC1CCN(CC2CCC2)CC1)c1n[nH]c2ccc(-c3cccnc3)cc12` [Compound 1314, N-(1-(Cyclobutylmethyl)piperidin-4-yl)-5-(pyridin-3-yl)-1H-indazole-3-carboxamide] was tested, and the pEC50 was 7.96.
With `CC(C)(C)CN1CCC(NC(=O)c2n[nH]c3ccc(-c4cncc(F)c4)cc23)CC1` [Compound 1315, 5-(5-Fluoropyridin-3-yl)-N-(1-neopentylpiperidin-4-yl)-1H-indazole-3-carboxamide] the pEC50 was 6.06.
`CC(C)CCN1CCC(NC(=O)c2n[nH]c3ccc(-c4cccnc4)cc23)CC1` [Compound 1316, N-(1-Isopentylpiperidin-4-yl)-5-(pyridin-3-yl)-1H-indazole-3-carboxamide] showed a pEC50 of 7.92.
In the case of `NC1CN(c2cncc(-c3ccc4[nH]nc(C(=O)Nc5cccnc5)c4c3)n2)C1` [Compound 1317, 5-(6-(3-Aminoazetidin-1-yl)pyrazin-2-yl)-N-(pyridin-3-yl)-1H-indazole-3-carboxamide], the pEC50 was 9.00.
For `CC(C)(F)CN1CCC(NC(=O)c2n[nH]c3ccc(-c4cnccn4)cc23)CC1` [Compound 1319, N-(1-(2-Fluoro-2-methylpropyl)piperidin-4-yl)-5-(pyrazin-2-yl)-1H-indazole-3-carboxamide], the pEC50 was 7.01.
`CC(C)(F)CN1CCC(NC(=O)c2n[nH]c3ccc(-c4cccnc4F)cc23)CC1` [Compound 1320, N-(1-(2-Fluoro-2-methylpropyl)piperidin-4-yl)-5-(2-fluoropyridin-3-yl)-1H-indazole-3-carboxamide] showed a pEC50 of 7.38.
For `CC(C)(F)CN1CCC(NC(=O)c2n[nH]c3ccc(-c4ccc(F)nc4)cc23)CC1` [Compound 1321, N-(1-(2-Fluoro-2-methylpropyl)piperidin-4-yl)-5-(6-fluoropyridin-3-yl)-1H-indazole-3-carboxamide], the pEC50 was 7.85.
In the case of `Cc1ncc(-c2ccc3[nH]nc(C(=O)NC4CCN(CC(C)(C)F)CC4)c3c2)cn1` [Compound 1322, N-(1-(2-Fluoro-2-methylpropyl)piperidin-4-yl)-5-(2-methylpyrimidin-5-yl)-1H-indazole-3-carboxamide], the pEC50 was 6.27.
`O=C(NCC1CC1)c1n[nH]c2ccc(-c3cncc(Cl)c3)cc12` [Compound 1323, 5-(5-Chloropyridin-3-yl)-N-(cyclopropylmethyl)-1H-indazole-3-carboxamide] gave a pEC50 of 7.37.
With `CN(C)Cc1ccc(NC(=O)c2n[nH]c3ccc(-c4cccnc4)cc23)cc1` [Compound 1324, N-(4-((Dimethylamino)methyl)phenyl)-5-(pyridin-3-yl)-1H-indazole-3-carboxamide] the pEC50 was 8.00.
For `CN(C)Cc1ccc(NC(=O)c2n[nH]c3ccc(-c4cccc(F)c4F)cc23)cc1` [Compound 1325, 5-(2,3-Difluorophenyl)-N-(4-((dimethylamino)methyl)phenyl)-1H-indazole-3-carboxamide], the pEC50 was 7.27.
Work on `O=C(Nc1ccc(CN2CCCC2)cc1)c1n[nH]c2ccc(-c3cccnc3)cc12` [Compound 1326, 5-(Pyridin-3-yl)-N-(4-(pyrrolidin-1-ylmethyl)phenyl)-1H-indazole-3-carboxamide] yielded a pEC50 of 8.00.
In the case of `CN1CCN(Cc2ccc(NC(=O)c3n[nH]c4ccc(-c5cccc(F)c5F)cc34)cc2)CC1` [Compound 1332, 5-(2,3-Difluorophenyl)-N-(4-((4-methylpiperazin-1-yl)methyl)phenyl)-1H-indazole-3-carboxamide], the pEC50 was 7.85.
`CC(C)CNC(=O)c1n[nH]c2ccc(-c3ccc(F)nc3)cc12` [Compound 1335, 5-(6-Fluoropyridin-3-yl)-N-isobutyl-1H-indazole-3-carboxamide] was tested, and the pEC50 was 7.21.
Compound `CC(C)CNC(=O)c1n[nH]c2ccc(-c3cccnc3F)cc12` [Compound 1336, 5-(2-Fluoropyridin-3-yl)-N-isobutyl-1H-indazole-3-carboxamide] has a pEC50 of 7.66.
With `CN1CCC(N(C)C(=O)c2n[nH]c3ccc(-c4cccnc4)cc23)CC1` [Compound 1337, N-Methyl-N-(1-methylpiperidin-4-yl)-5-(pyridin-3-yl)-1H-indazole-3-carboxamide] the pEC50 was 5.60.
`CCN1CCC(NC(=O)c2n[nH]c3ccc(-c4cccc(OC)c4F)cc23)CC1` [Compound 1338, N-(1-Ethylpiperidin-4-yl)-5-(2-fluoro-3-methoxyphenyl)-1H-indazole-3-carboxamide] was tested, and the pEC50 was 5.74.
